For 79 compounds, RP-LC retention time results are on record in the METLIN SMRT retention time set (Domingo-Almenara et al. 2019).

The nature of the data set: gradient 5% acetonitrile 3 min, to 50% in 2 min, to 85% in 15 min, held 3 min, 100 µL/min. As to conditions: column: Zorbax Extend-C18 2.1 x 50 mm; eluents: water / acetonitrile, 0.1% formic acid. The procedure, abridged: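 Data were gathered over 3 months by HPLC coupled to a quadrupole time-of-flight mass spectrometer, operated in positive and negative ionization mode. Mixtures of ~100 pure standards ran on a Zorbax Extend-C18 column (2.1 × 50 mm, 1.8 μm) at 100 μL/min, with water and acetonitrile each containing 0.1% formic acid and dead and dwell volumes of 40 μL and 900 μL. Retention time was read from adduct peaks picked by computer and checked manually.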
The compound `CNC(=O)Nc1cccnc1N1CCCCC1` yielded an RP-LC retention time of 544 s.

Consider `CC1(C)COCN1S(=O)(=O)c1ccc(C(=O)Nc2nnc(-c3ccc(F)cc3)o2)cc1`, for which the RP-LC retention time amounted to 811 s. `CC(=O)N1CCc2ccccc2C1C(=O)N1CCN(c2ccc(F)cc2)CC1` (centres undefined) came in with an RP-LC retention time of 576 s. Compound `CC(C)CNC(=O)CCc1nc2ccccc2n(CC(=O)NCc2ccc(F)cc2)c1=O` displayed an RP-LC retention time of 783 s. Consider `CCCCN(Cc1ccco1)C(=O)Cn1nc(Cc2ccncc2)c2ccccc2c1=O`, for which the RP-LC retention time turned out to be 679 s. `Cn1c(=O)c2ccn(CC(=O)N3CCN(c4ccccc4F)CC3)c2n(C)c1=O` yielded an RP-LC retention time of 851 s. `CCCn1ccc2sc(C)c(C(=O)NCC3CCCCC3)c2c1=O` came in with an RP-LC retention time of 1010 s.

With `CSc1nnc(-c2nn(C)c3c2CN(C(=O)c2c(F)cccc2F)CC3)n1C`, the RP-LC retention time was determined as 695 s. As for `Cc1ccc(C)c(NC(=O)Cn2nc3n(c2=O)CCCC3)c1`, the figure is 708 s. Regarding `COc1ccc(S(=O)(=O)N2CCC(OCCOCc3ccccc3)CC2)cc1`, the RP-LC retention time worked out at 1050 s.

`COC(=O)c1ccc(CSc2nnc(CNC(=O)c3cccc([N+](=O)[O-])c3C)o2)o1` yielded an RP-LC retention time of 732 s. Take `COCCNC(=O)Cn1c(=O)n(-c2ccccc2)c2ncccc21`: the RP-LC retention time is 634 s. To `O=C(NC1CC(=O)N(C2CC2)C1)c1cc(-c2ccccc2)n[nH]1` (centres undefined) belongs 607 s; to `CSc1nc2cc(S(=O)(=O)N3CCCCC3)ccc2s1`, 1100 s. Take `CCCS(=O)(=O)N1CCC(Cc2nncn2-c2ccccc2)CC1`: the RP-LC retention time is 713 s. To `CCCCS(=O)(=O)N1CCC2(CC1)C(=O)N(C)C(=O)N2C` belongs 671 s. To `COc1ccc(CNC(=O)C2CCN(Cc3cn(C)c4ccc(OC)cc34)CC2)c(OC)c1` belongs 672 s. As for `Cc1ccc(CNCCSc2nnnn2C)s1`, the figure is 580 s; as for `Cc1onc(-c2ccccn2)c1C(=O)NCCc1c[nH]c2ccc(Cl)cc12`, 1000 s.

`COc1ccccc1-c1nnc(-c2ccc(C)c(S(=O)(=O)N3CCCC3)c2)o1` came in with an RP-LC retention time of 966 s. To `CC1=C(c2ccccc2)S(=O)(=O)N=C1N1CCCN(C(=O)NCCC(C)C)CC1` belongs 818 s.

For `C[C@@]1(c2cc(-c3cncnc3)c(F)cc2F)CCSC(N)=N1`, the RP-LC retention time worked out at 654 s.

Compound `COc1ccc(N2C=C(C(=O)N3CCCC3)S(=O)(=O)c3ccc(Cl)cc32)cc1OC` came in with an RP-LC retention time of 816 s.

Compound `COc1ccc(Cl)cc1C(=O)NCC(O)C1CCCCC1` (centres undefined) came in with an RP-LC retention time of 863 s. As for `O=C(Cn1ccn2nc(-c3ccc(F)cc3)c(CO)c2c1=O)NC1CCCC1`, the figure is 770 s; as for `COc1cc(NC(=O)N2CCC3(CC2)NC(=O)c2ccccc2O3)cc(OC)c1OC`, 685 s. Compound `O=S(=O)(c1cccc(-c2nc(-c3ccccc3)no2)c1)N1CCN(C2CCCCC2)CC1` showed an RP-LC retention time of 840 s. With `COc1ccc(-c2ccc(N3CCCC(C(=O)NCc4cccs4)C3)nn2)cc1` (centres undefined), the RP-LC retention time was determined as 613 s.

Regarding `Cc1ccc(NC(=O)Cn2nc3c(N4CCN(c5ccccc5C)CC4)nccn3c2=O)cc1F`, the RP-LC retention time is 1110 s. To `CCOC(=O)c1c(S(=O)(=O)N2CCC(C(=O)Nc3cccc(Cl)c3)CC2)c(C)n(CC)c1C` belongs 986 s; to `Cc1cc(C)n(-c2ccc(C(=O)N3CCN(c4ccc(F)c(Cl)c4)CC3)nn2)n1`, 969 s.

For `c1ccc(N2CCN(c3c4c(nc5ncnn35)CCC4)CC2)nc1`, the RP-LC retention time came out at 563 s.

`COc1ccc(OC)c(NC(=O)Cn2c(N3CCCC3)nc(C)cc2=O)c1` returned an RP-LC retention time of 654 s. Turning to `COC(=O)CNC(=O)N1CCCCCC1c1ccc(C)cc1` (centres undefined), the RP-LC retention time turned out to be 852 s. As for `Cc1ccn2c(NC(=O)C(C)(C)Oc3ccc(Cl)cc3)c(-c3ccc(F)cc3)nc2c1`, the figure is 819 s; as for `N#CCCN(CCC#N)c1ccc(/C=C2\N=C(c3cc([N+](=O)[O-])ccc3Cl)OC2=O)cc1`, 1010 s. To `Cc1ccc(-c2nc(C3CCN(S(=O)(=O)c4ccc5c(c4)CCC5)CC3)no2)cc1` belongs 1310 s; to `CCn1cc(C(=O)NCc2ccccc2F)c(S(=O)(=O)N2CCSCC2)n1`, 901 s. In turn, `CCCCC(=O)N1CCC2(C1)C(=O)N(C)c1ccccc12` (centres undefined) gave an RP-LC retention time of 743 s.

For the compound `O=C(c1ccc(F)c(F)c1Nc1ccc(I)cc1F)N1CC(O)([C@H]2CCCCN2)C1`, the RP-LC retention time was determined as 822 s. As to `COc1ccccc1NC(=O)C1CCN(S(=O)(=O)c2cc(C(=O)N3CCOCC3)cs2)CC1`, the RP-LC retention time worked out at 779 s. As for `CCCN1C(=O)C(CC(=O)NCCOC)Sc2ncccc21` (centres undefined), the figure is 632 s; as for `Cc1csc(NC(=O)c2sc3nc(-c4cccc([N+](=O)[O-])c4)cn3c2C)n1`, 800 s; as for `CCOc1ccc(-n2ccn3cc(-c4cc(C)ccc4C)nc3c2=O)cc1`, 951 s. On to `CN(C)S(=O)(=O)c1ccc(-c2nnc(C(=O)NCc3cccs3)o2)cc1`, for which the RP-LC retention time stood at 812 s. Regarding `CC(C)NC(=O)c1nc2ccccc2n(C)c1=O`, the RP-LC retention time stood at 659 s.

Compound `O=C(NCc1cccnc1)C1CCCN(c2ccc(Sc3ccc(Br)cc3)nn2)C1` (centres undefined) yielded an RP-LC retention time of 653 s.

Consider `Cn1ncc2cc3c(Nc4ccc(Cl)cc4)cccc3nc21`, for which the RP-LC retention time is 670 s. To `CCN(CC)C(=O)C1CCN(S(=O)(=O)c2ccc3c(c2)NC(=O)CO3)CC1` belongs 680 s; to `CCc1ccc(NC(=O)CN2C(=O)CCCc3cc(S(=O)(=O)N4CCCC4)ccc32)cc1`, 918 s; to `Fc1ccc(-c2nnc(Cc3nc(-c4ccccc4F)no3)o2)cc1`, 1010 s. To `COc1ccccc1OCCC1CCN(C(=O)CCS(=O)(=O)c2ccc3c(c2)CCN3C(C)=O)C1` (centres undefined) belongs 788 s; to `O=C(NC1CC1)c1ccc2ncnc(N3CCCCC3)c2c1`, 580 s; to `COc1ccc2nc(C(=O)NCc3ccc(F)cc3)cn2n1`, 783 s. To `CCN(CC)CCNC(=O)Cn1nc(C)c2nn(-c3ccc(F)cc3)c(-n3cccc3)c2c1=O` belongs 675 s; to `CCOc1ccc(CC(=O)N2CCCC2c2c(C)noc2C)cc1` (centres undefined), 902 s; to `COc1ccc(CC(=O)N2C[C@@H]3C[C@H](NC(=O)c4ccccc4)[C@H]2C3)cc1Cl`, 794 s. Regarding `O=C(C1CCCN(c2ncnc3c2nc2n3CCCCC2)C1)N1CCCCC1` (centres undefined), the RP-LC retention time was 713 s. Take `O=C(Nc1ccccc1F)C1CCCN(S(=O)(=O)c2cc(-c3noc(C4CCC4)n3)cs2)C1` (centres undefined): the RP-LC retention time is 1160 s. Compound `O=C(Nc1nc(-c2nc3ccccc3s2)cs1)c1ccc([N+](=O)[O-])s1` had an RP-LC retention time of 1020 s. To `COc1ccc(-c2nc3cnccn3c2Nc2ccc(Cl)cc2)cc1OC` belongs 830 s; to `O=C(COc1ccc(F)cc1)N1CCCC1c1nc(-c2ccc(F)cc2F)no1` (centres undefined), 950 s; to `COC(=O)c1ccc2c(=O)n(-c3cccc(OC)c3)c(N3CCOCC3)nc2c1`, 887 s. In turn, `Cc1ccc(S(=O)(=O)N2CCC3(CC2)NCCN=C3NCc2cc(F)cc(F)c2)cc1` came in with an RP-LC retention time of 734 s. As to `c1ccc(-c2noc(NCc3ccc4c(c3)OCO4)n2)cc1`, the RP-LC retention time was 974 s. To `COC(=O)Cn1c(=O)c2c(nc3n2CCCN3c2ccccc2)n(C)c1=O` belongs 761 s.

Take `Cc1ccc(CNC(=O)C2CCCN(c3nnc4ccccn34)C2)cc1` (centres undefined): the RP-LC retention time came out at 705 s. `CCc1ccc(NC(=O)Cn2c(C(C)C)nc3cc4c(cc32)OCCO4)cc1` had an RP-LC retention time of 742 s. As for `O=C(NCc1ccco1)c1nnn(-c2ccc(F)cc2)c1-c1ccncc1`, the figure is 726 s; as for `COc1cccc(NC(=O)N(C)CCc2noc(COc3ccc(F)cc3)n2)c1`, 856 s. As for `CCc1ccc(C(=O)NC2CCN(c3cc(-c4ccc(Cl)cc4)[nH]n3)C2)cc1` (centres undefined), the figure is 879 s; as for `O=C(c1cccc(F)c1)N1CCN(C(=O)c2nnn3c2COC(c2ccc(Cl)cc2)C3)CC1` (centres undefined), 931 s; as for `Cc1cc(C)cc(Nc2c(-c3cccc(O)c3)nc3cnccn23)c1`, 763 s. As for `Cc1nc(CCNC(=O)C2CCN(S(=O)(=O)c3ccc(Cl)cc3)CC2)cs1`, the RP-LC retention time is 755 s. To `COCC(=O)N1CCc2c(sc3ncnc(N4CCOCC4)c23)C1` belongs 623 s; to `CCc1ccc(C2=C(C)C(N3CCCN(C(=O)C4CCCC4)CC3)=NS2(=O)=O)cc1`, 946 s; to `CCCn1cc2c3c(cccc31)CN(C(=O)COc1ccc(F)cc1)CC2`, 1030 s. `CCN(CC)c1cc2c(cc1NC(=O)COc1ccc(Cl)cc1)n(C)c(=O)c(=O)n2C` returned an RP-LC retention time of 965 s. Consider `Cc1ccc(C2Cn3nnc(-c4nc(-c5ccccc5F)no4)c3CO2)c(C)c1` (centres undefined), for which the RP-LC retention time worked out at 1230 s.
